In general, Emax refers to the greatest response seen or fitted, relative to the assay's reference. By EC50 is commonly meant the concentration at which the effect is half-maximal. A higher EC50 goes with a less potent agent.

The target in this test is T1, Human GLP-1 receptor (Homo sapiens, UniProt P43220).
T1 construct: expressed in transfected cells
As to the kind of experiment: Measurement of GLP-1 receptor agonist activity (cAMP assay). The format is cell-based. How it is done:
Test Example 1: (Measurement of GLP-1 Receptor Agonist Activity)
Human GLP-1 receptor stably expressing cells (hGLP-1R/CHO-K1 cells) are cultured in an α-MEM medium (Sigma) containing 10% FBS (Hyclone), 2% GlutaMAX (Gibco), 1% G418 (Nacalai Tesque), and 1% Penicillin-Streptomycin Mixed Solution (Sigma) at 37° C. under 5% CO2 conditions, and recovered by treating a 10 fold diluted 5.0 g/l-trypsin/5.3 mmol/l-EDTA solution (Nacalai Tesque) and cryopreserved.
A DMSO solution containing the compound of the present invention or human GLP-1 (7-36) (Phoenix Pharmaceuticals) is dispensed into a 384-well microplate (Greiner) at 62.5 nL/well, and in addition, 400 μM Forskolin (Nacalai Tesque) is dispensed therein at 7.5 nL/well. Subsequently, the frozen GLP-1 R/CHO-K1 cells are thawed in a thermostatic bath at 37° C., suspended in HBSS buffer (GIBCO) containing 0.1% BSA (Sigma), 20 mM HEPES (GIBCO), 0.1 mM IBMX (Sigma), and 0.2 mM RO20-1724 (Calbiochem) at 2×10^4 cells/mL, and the cell suspension is added at 6 μL/well. The solution was incubated at 37° C. for 1 hour and intracellular cAMP concentration is measured using cAMP Gs dynamic kit (Cisbio) according to the protocol attached to the product. Specifically, cAMP-d2 and Anti-cAMP-Cryptate are each added in an amount of 3 μL/well, the mixture is incubated at room temperature for 1 hour, and time-resolved fluorescence is measured using PHERAstar (BMG Labtech).
The dilution concentration or the dilution solvent are changed as necessary.
The compounds of the present invention were tested essentially as described above.
(In general: Cyclic AMP is a second messenger, typically raised through Gs and lowered through Gi signalling.)

Where [1] appears, read: CHO-K1, hGLP-1R/CHO-K1 cells, cAMP, 100% = human GLP-1 (7-36) at 2 nM, 0% = DMSO only, read-out: Emax(%).
Setting [2] is: hGLP-1R/CHO-K1 cells, cAMP increase, 37° C. 1 hour.

Each structure is given as a SMILES string. Read-outs that look alike come from different tables or passages of the source.

T1 sequence (P43220 24-463): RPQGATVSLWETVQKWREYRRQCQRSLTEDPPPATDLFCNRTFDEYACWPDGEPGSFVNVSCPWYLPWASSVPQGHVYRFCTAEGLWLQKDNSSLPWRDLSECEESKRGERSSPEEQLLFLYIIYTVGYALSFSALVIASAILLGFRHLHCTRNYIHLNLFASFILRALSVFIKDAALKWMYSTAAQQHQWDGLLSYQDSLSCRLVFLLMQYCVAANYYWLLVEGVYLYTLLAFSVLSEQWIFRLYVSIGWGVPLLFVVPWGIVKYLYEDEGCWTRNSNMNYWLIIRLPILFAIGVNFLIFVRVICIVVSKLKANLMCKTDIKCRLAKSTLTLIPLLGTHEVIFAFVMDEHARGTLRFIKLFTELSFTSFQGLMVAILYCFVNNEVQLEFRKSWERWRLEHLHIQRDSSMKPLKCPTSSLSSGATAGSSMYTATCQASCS

As for `CC(c1nc2ccc(C(=O)O)cc2n1C[C@@H]1CCO1)N1CCc2cc(C(F)(F)F)c(OCc3ccc(Cl)cc3F)cc2C1` (mixture of isomers) [Compound I-032], under setting [1], the maximal response (Emax) is 146%. Moreover, the half-maximal effective concentration (EC50) under setting [2] is 92.7 nM.
The matching figures for `CCC1c2cc(OCc3ccc(Cl)cc3F)c(C(F)(F)F)cc2CCN1Cc1nc2ccc(C(=O)O)cc2n1C[C@@H]1CCO1` (mixture of isomers) [Compound I-044]: 103% and 9.98 nM.
As to `O=C(O)c1ccc2nc(CN3CCc4cc(C(F)(F)F)c(OCc5ccc(Cl)cc5F)cc4C3C(F)F)n(C[C@@H]3CCO3)c2c1` (mixture of isomers) [Compound I-066], the Emax under setting [1] came out at 124%. Under setting [2], this compound came in with an EC50 of 8.72 nM.
On the same counts, the results for `O=C(O)c1ccc2nc(CN3CCc4cc(C(F)(F)F)c(OCc5ccc(Cl)cc5F)cc4C3CF)n(C[C@@H]3CCO3)c2c1` (mixture of isomers) [Compound I-133] are 112% and 4.5 nM.
As for `Cc1cc2c(cc1OCc1ccc(Cl)cc1F)CN(Cc1nc3ccc(C(=O)O)cc3n1C[C@@H]1CCO1)CC2` [Compound I-001], under setting [1], the maximal effect (Emax) was determined as 75%. Under setting [2], the 50% effective concentration (EC50) turned out to be 47.5 nM.
On the same counts, the results for `CCn1cncc1Cn1c(CN2CCc3cc(C)c(OCc4ccc(Cl)cc4F)cc3C2)nc2ccc(C(=O)O)cc21` [Compound I-002] are 92.2% and 43.3 nM.
The matching figures for `Cc1cc2c(cc1OCc1ccc(Cl)cc1F)C(=O)N(Cc1nc3ccc(C(=O)O)cc3n1C[C@@H]1CCO1)CC2` [Compound I-004]: 75.3% and 43.9 nM.
In the case of `Cc1cc2ccc(Cc3nc4ccc(C(=O)O)cc4n3C[C@@H]3CCO3)cc2nc1OCc1ccc(Cl)cc1F` [Compound I-006], the Emax under setting [1] amounted to 86%.
With `O=C(O)c1ccc2nc(CN3CCc4cc(Br)c(OCc5ccc(Cl)cc5F)cc4C3)n(C[C@@H]3CCO3)c2c1` [Compound I-007], under setting [1], the Emax stood at 75.7%. Moreover, the midpoint of the response under setting [2], the EC50, lay at 19.8 nM.
As to `N#Cc1cc2c(cc1OCc1ccc(Cl)cc1F)CN(Cc1nc3ccc(C(=O)O)cc3n1C[C@@H]1CCO1)CC2` [Compound I-008], the maximal response (Emax) under setting [1] worked out at 84.3%.
As for `Cc1cc2c(cc1OCc1ccc(Cl)cc1F)CN(Cc1nc3ccc(C(=O)O)nc3n1C[C@@H]1CCO1)CC2` [Compound I-009], the maximal effect (Emax) under setting [1] amounted to 81.3%. Also, the concentration for a half-maximal effect (EC50) under setting [2] worked out at 27.3 nM.
The matching figures for `Cc1cc2c(cc1OCc1ccc(Cl)cc1F)C(=O)N(Cc1nc3ccc(C(=O)O)nc3n1C[C@@H]1CCO1)CC2` [Compound I-011]: 92.7% and 70.8 nM.
On the same counts, the results for `Cc1cc2c(cc1OCc1ccc(C(F)(F)F)cn1)CN(Cc1nc3ccc(C(=O)O)cc3n1C[C@@H]1CCO1)CC2` [Compound I-015] are 81.3% and 74.3 nM.
With `Cc1cc2c(cc1OCc1ccc(Cl)cc1)CN(Cc1nc3ccc(C(=O)O)cc3n1C[C@@H]1CCO1)CC2` [Compound I-016], the maximal response (Emax) under setting [1] was 79%. For the same compound, the EC50 under setting [2] turned out to be 50.3 nM.
On the same counts, the results for `Cc1cc2c(cc1OCc1ccc(C(F)(F)F)cc1F)CN(Cc1nc3ccc(C(=O)O)cc3n1C[C@@H]1CCO1)CC2` [Compound I-020] are 89% and 75.8 nM.
On the same counts, the results for `O=C(O)c1ccc2nc(CN3CCc4cc(Cl)c(OCc5ccc(Cl)cc5F)cc4C3)n(C[C@@H]3CCO3)c2c1` [Compound I-022] are 92.3% and 15 nM.
On the same counts, the results for `O=C(O)c1ccc2nc(CN3CCc4cc(C(F)(F)F)c(OCc5ccc(Cl)cc5F)cc4C3)n(C[C@@H]3CCO3)c2c1` [Compound I-023] are 86% and 4.56 nM.
As for `O=C(O)c1ccc2nc(CN3CCc4cc(Cl)c(OCc5ccc(Cl)cc5F)cc4C3)n(C[C@@H]3CCO3)c2n1` [Compound I-024], the Emax under setting [1] came to 92.7%. Besides, under setting [2], the EC50 was 26.4 nM.
`CC1c2cc(OCc3ccc(Cl)cc3F)ccc2CCN1Cc1nc2ccc(C(=O)O)cc2n1C[C@@H]1CCO1` (some centres unmarked) [Compound I-025]: the maximal response (Emax) (CHO-K1, maximum effect, cAMP increase in GLP-1 R/CHO-K1 cells, 2 nM human GLP-1 (7-36) = 100%, DMSO only = 0%, read-out: Emax) came out at 78.7%. Also, for the setting “cAMP increase in GLP-1 R/CHO-K1 cells, 2 nM human GLP-1 (7-36) = 100%, DMSO only = 0%”, the 50% effective concentration (EC50) was 109 nM.
Take `O=C(O)c1ccc2nc(CN3CCc4cc(C(F)(F)F)c(OCc5ccc(Cl)cc5F)cc4C3)n(C[C@@H]3CCO3)c2n1` [Compound I-026]: the Emax under setting [1] came to 85%. It took 6.35 nM to reach a half-maximal effect under setting [2] (EC50).
On the same counts, the results for `O=C(O)c1ccc2nc(CN3CCc4cc(C(F)F)c(OCc5ccc(Cl)cc5F)cc4C3)n(C[C@@H]3CCO3)c2c1` [Compound I-027] are 80% and 9.48 nM.
In the case of `Cc1cc2c(cc1OCc1ccc(Cl)cc1F)CN(Cc1nc3ncc(C(=O)O)cc3n1C[C@@H]1CCO1)CC2` [Compound I-028], the Emax under setting [1] was found to be 84%. In addition, the EC50 under setting [2] is 78.6 nM.
The matching figures for `Cc1cc2c(cc1OCc1ccc(F)cc1F)CN(Cc1nc3ccc(C(=O)O)cc3n1C[C@@H]1CCO1)CC2` [Compound I-029]: 81.3% and 94.6 nM.
`O=C(O)c1ccc2nc(CN3CCc4cc(C(F)(F)F)c(OCc5ccc(Cl)cc5F)cc4C3=O)n(C[C@@H]3CCO3)c2c1` [Compound I-030]: the Emax under setting [1] came to 92.3%. Further, the response under setting [2] was half-maximal at 3.56 nM (EC50).
On the same counts, the results for `O=C(O)c1ccc2nc(CN3CCc4cc(C(F)(F)F)c(OCc5ccc(Cl)cc5F)cc4C3=O)n(C[C@@H]3CCO3)c2n1` [Compound I-031] are 91% and 8.92 nM.
The matching figures for `O=C(O)c1cc2c(cc1F)nc(CN1CCc3cc(C(F)(F)F)c(OCc4ccc(Cl)cc4F)cc3C1)n2C[C@@H]1CCO1` [Compound I-034]: 103% and 8.71 nM.
For the compound `C[C@@H]1c2cc(OCc3ccc(Cl)cc3F)c(C(F)(F)F)cc2CCN1Cc1nc2ccc(C(=O)O)cc2n1C[C@@H]1CCO1` [Compound I-036], under setting [1], the maximal response (Emax) was determined as 66%. Further, under setting [2], a half-maximal effect (EC50) was put at 99.5 nM.
On the same counts, the results for `C[C@H]1c2cc(OCc3ccc(Cl)cc3F)c(C(F)(F)F)cc2CCN1Cc1nc2ccc(C(=O)O)nc2n1C[C@@H]1CCO1` [Compound I-037] are 126% and 0.663 nM.
As to `CS(=O)(=O)CCn1c(CN2CCc3cc(C(F)(F)F)c(OCc4ccc(Cl)cc4F)cc3C2)nc2ccc(C(=O)O)cc21` [Compound I-039], under setting [1], the Emax stood at 83.3%. Under setting [2], this compound yielded an EC50 of 43.8 nM.
On the same counts, the results for `O=C(O)c1ccc2nc(CN3CCc4cc(C(F)(F)F)c(OCc5ccc(Cl)cc5F)cc4C3)n(C[C@@H]3CCCO3)c2c1` [Compound I-040] are 147% and 37.7 nM.
Consider `N#CCC1(Cn2c(CN3CCc4cc(C(F)(F)F)c(OCc5ccc(Cl)cc5F)cc4C3)nc3ccc(C(=O)O)cc32)CC1` [Compound I-041], for which the maximal response (Emax) under setting [1] stood at 102%. In addition, the 50% effective concentration (EC50) under setting [2] turned out to be 45.2 nM.
Regarding `O=C(O)c1ccc2nc(CN3CCc4cc(C(F)(F)F)c(OCc5ccc(Cl)cc5F)cc4C3)n(C[C@H]3CCO3)c2c1` [Compound I-042], the Emax under setting [1] was found to be 95%. Under setting [2], this compound returned a half-maximal effective concentration (EC50) of 73.8 nM.
On to `O=C(O)c1ccc2nc(CN3CCc4cc(C(F)(F)F)c(OCc5ccc(Cl)cc5F)cc4C3)n(CC3(CF)CC3)c2c1` [Compound I-043], for which the Emax under setting [1] was 109%. Further, the EC50 under setting [2] was determined as 13.2 nM.
The matching figures for `COCCn1c(CN2CCc3cc(C(F)(F)F)c(OCc4ccc(Cl)cc4F)cc3C2)nc2ccc(C(=O)O)cc21` [Compound I-045]: 93.7% and 81.5 nM.
Turning to `O=C(O)c1ccc2nc(Cc3ccc4cc(C(F)(F)F)c(OCc5ccc(Cl)cc5F)nc4c3)n(C[C@@H]3CCO3)c2c1` [Compound I-046], under setting [1], the maximal effect (Emax) is 118%.
Consider `O=C(O)c1ccc2nc(CN3CCc4cc(C(F)(F)F)c(OCc5ccc(OC(F)F)cc5F)cc4C3)n(C[C@@H]3CCO3)c2c1` [Compound I-047], for which the maximum response (Emax) under setting [1] stood at 105%. The same compound returned an EC50 under setting [2] of 4.3 nM.
Turning to `O=C(O)c1ccc2nc(CN3CCc4cc(C(F)(F)F)c(OCc5ccc(Cl)cc5F)cc4C3)n(CC3(C(F)F)CC3)c2c1` [Compound I-048], the maximal response (Emax) under setting [1] turned out to be 130%. Under setting [2], this compound came in with an EC50 of 75.4 nM.
On the same counts, the results for `CCn1cncc1Cn1c(CN2CCc3cc(C(F)(F)F)c(OCc4ccc(Cl)cc4F)cc3C2)nc2ccc(C(=O)O)cc21` [Compound I-049] are 95% and 5.03 nM.
On to `Cn1nncc1Cn1c(CN2CCc3cc(C(F)(F)F)c(OCc4ccc(Cl)cc4F)cc3C2)nc2ccc(C(=O)O)cc21` [Compound I-050], for which the Emax under setting [1] was 67.7%. Besides, the concentration for a half-maximal effect (EC50) under setting [2] worked out at 238 nM.
The matching figures for `O=C(O)c1ccc2nc(CN3CCc4cc(C(F)(F)F)c(OCc5ccc(Cl)cc5F)cc4C3)n(Cc3cccnc3)c2c1` [Compound I-051]: 87.3% and 24.2 nM.

For the origin of these results see patent US20240217966A1, “PHARMACEUTICAL COMPOSITION CONTAINING GLP-1 RECEPTOR AGONIST HAVING FUSED RING” (Shionogi & Co., Ltd., priority 2021, published 2024).
